In general, Papp refers to the rate of passage across a membrane or cell layer, normalised by area and donor concentration.

Where two headings read alike, the source gives them in different places.

The results in this text go back to PMC12294314, “Bioactive Properties of Persea americana Peel Extract and Their Role in Hypercholesterolemia Management and Cardiovascular Health” (Foods, 2025).

Data set [1] is described as follows: Permeation of extract compounds across Caco-2 monolayer (Papp). Type of data set: in vitro ADME, human. The conditions noted are these: human. The method, then: (§1) The permeation of the extract in Caco-2 cells was evaluated for three phenolic compounds previously identified and quantified, namely chlorogenic acid, catechin, and epicatechin. […] After 6 h, a sample was collected from the basolateral side and analyzed by HPLC-DAD, using a LiChroCART® 250-4 LiChrospher® 100 RP-18 (5 μm) column (Merck KGaA, Darmstadt, Germany), following the conditions described in a previous study.
(Caco-2 cells form a polarised layer with tight junctions and transporters.)

In data set [2] the test system is Caco-2 cells. Described as above. Format: in vitro ADME, human. The method, then: as §1
Data set [3] concerns Caco-2 cells. Kind of data set: Cholesterol permeation across differentiated Caco-2 monolayer. Format: cell-based, human. The conditions noted are these: cholesterol 5 mM apical, 6 h, extract 0.240 mg/mL, ezetimibe 0.1 mM (methods) / 0.01 mM (Figure 3 legend). The method, then: The cholesterol permeation assays were carried out by following the protocol described by Arantes et al.. Caco-2 cells were cultured in a 12-well microplate with inserts (A = 1.1 cm^2) and maintained until differentiation. To evaluate the integrity of the membrane, transepithelial electrical resistance (TEER) of the formed membrane was measured. When the TEER value exceeded 250 Ω·cm^2, it was considered that the membrane was formed.
Subsequently, 0.5 mL of the solutions to be analyzed was added on the apical side of each insert: cholesterol (5 mM) (control), extract (0.240 mg/mL), extract (0.240 mg/mL) with cholesterol (5 mM), and ezetimibe (0.1 mM) with cholesterol (5 mM). On the basolateral side, 1.5 mL of the Hank’s Balanced Salt Solution (HBSS) was added. The cells were incubated at 37 °C in a 5% CO2 atmosphere for 6 h. After this period, the basolateral solution of each well was collected and analyzed by high-performance liquid chromatography coupled to a diode-array detector (HPLC-DAD) using an Elite LaChrom® (HITACHI, VWR, Tokyo, Japan), with an Autosampler L-2200, a Column Oven L-2300, and a Diode Array Detector L 2455 (VWR, Radnor, PA, USA). The column used was LiChroCART® 250-4 LiCrosphere®100 RP-8 (5 μm) (Merk, Darmstadt, Germany). The conditions followed were the ones presented by Pinto et al.. […]

The subject of another data set is HepG2 cells. Kind of data set: Reactive oxygen species (ROS) production in HepG2 cells (DCFDA). Type of data set: cell-based, human. The note with it: TBHP 200 µM alone, 6 h, PBS control = 100%. The method, then: The quantification of reactive oxygen species (ROS) produced in the HepG2 cell line was assessed. HepG2 cells were plated at a concentration of 2.5 × 10^4 cells/well in a black, transparent-bottom 96-well microplate and incubated for 24 h. Afterward, a solution of the 2′,7′–dichlorodifluorescin diacetate (DCFDA) (0.1 mM) was added to the cells and they were incubated in the dark for 45 min. The solution was then removed, and the following samples were applied: a control with only the PBS, tert-butyl hydroperoxide (TBHP) at 200 µM, the extract at 0.164 mg/mL, and a combination of the extract and THBP with their final concentrations being 0.164 mg/mL and 200 µM, respectfully. The microplate was incubated for 6 h in the dark, after which fluorescence was measured with excitation at 495 nm and emission at 527 nm, both at 37 °C (SpectraMax® GEMINI XPS/EM, Molecular Devices®, San Jose, CA, USA). ROS production was determined using Equation (1) by considering that the fluorescence produced by the control group was 100%.(1) ROS Production % =AbsSample/AbsControl × 100 where AbsSample corresponds to the absorbance of the samples and AbsControl corresponds to the absorbance of the control. The assays were carried out in quadruplicate.

For `O=C(/C=C/c1ccc(O)c(O)c1)O[C@@H]1C[C@](O)(C(=O)O)C[C@@H](O)[C@H]1O` [Chlorogenic Acid (3), Chlorogenic Acid], the Papp at 6 h, 0.24 mg/mL was 6.5 ×10⁻⁶ cm/s in data set [1] (Caco-2, apical sample: extract (0.240 mg/mL), Caco-2, 6 h, read-out: Papp) and 1 to 10 ×10⁻⁶ cm/s in data set [1] (Caco-2, apical sample: extract, Caco-2, read-out: Permeability class (from Papp)).
In data set [1] (Caco-2, Permeability class (from Papp)), `Oc1cc(O)c2c(c1)O[C@H](c1ccc(O)c(O)c1)[C@H](O)C2` [Epicatechin (15), (−)-Epicatechin] gave a Papp at 6 h, 0.24 mg/mL of over 10 ×10⁻⁶ cm/s. Besides, the Papp in the data set with Caco-2 cells [2] (human, Caco-2, 6 h, 0.24 mg/mL) is 24.0 10^−6 cm/s.
As for `Oc1cc(O)c2c(c1)OC(c1ccc(O)c(O)c1)C(O)C2` (single isomer, unassigned; (+)) [Catechin (13), (+)-Catechin], in the data set with Caco-2 cells [2] (Caco-2), the Papp is 14.4 10^−6 cm/s.
On to `O=C1[C@H](CC[C@H](O)c2ccc(F)cc2)[C@@H](c2ccc(O)cc2)N1c1ccc(F)cc1` [ezetimibe], for which the “Reduction in cholesterol permeability” value in the data set on Caco-2 cells [3] is given as 62 ± 5%.
Turning to `CC(C)(C)OO` [TBHP, tert-butyl hydroperoxide], in the data set with HepG2 cells, the “ROS production (% of control)” value is “approximately 395%”.
